Where a name gives a salt, the structure may show the parent alone.
Tests used:
[1] = Stability of NRH or NR spiked in isolated mouse plasma; format: in vitro ADME; details: 2 h of incubation
Excerpt: (§1) Levels of NRH and other NAD-related metabolites in biological samples were obtained by using a cold liquid-liquid extraction using a mixture of methanol:water:chloroform in 5:3:5 (v/v), from which the polar phase was recovered for hydrophilic interaction ultra-high performance liquid chromatography mass spectrometry (UHPLC-MS) analysis. The UHPLC consisted of a binary pump, a cooled autosampler, and a column oven (DIONEX Ultimate 3000 UHPLC+ Focused, Thermo Scientific), connected to a triple quadrupole spectrometer (TSQ Vantage, Thermo Scientific) equipped with a heated electrospray ionisation (H-ESI) source. Of each sample, 2 μL were injected into the analytical column (2.1 mm×150 mm, 5 μm pore size, 200 Å HILICON iHILIC®-Fusion(P)), guarded by a pre-column (2.1 mm×20 mm, 200 Å HILICON iHILIC®-Fusion(P) Guard Kit) operating at 35° C. The mobile phase (10 mM ammonium acetate at pH 9, A, and acetonitrile, B) was pumped at 0.25 mL/min flow rate over a linear gradient of decreasing organic solvent (0.5-16 min, 90-25% B), followed by re-equilibration for a total run time of 30 min. The MS operated in positive mode at 3500 V with multiple reaction monitoring (MRM). The software Xcalibur v4.1.31.9 (Thermo Scientific) was used for instrument control, data acquisition and processing. Retention time and mass detection was confirmed by authentic standards.
(§2) NR degradation to NAM has been proposed as a limitation for its pharmacological efficacy. To evaluate whether NRH was also susceptible to degradation to NAM, we spiked NRH or NR in isolated mouse plasma. […] We also tested the stability of NRH in other matrixes.

[2] = Circulating NAM, NRH and NR after intraperitoneal injection; format: in vivo, mice; details: IP 500 mg/kg
Excerpt: as §1
(§3) The above results prompted us to test whether NRH could act as an effective NAD+ precursor in vivo. For this, we first intraperitoneally (IP) injected mice with either NR or NRH (500 mg/kg).

NRK1 = experiment: NAD+ levels in primary hepatocytes from control or NRK1 knockout mice; details: 1 hour of treatment
[3] = test system: NAD+ levels in liver, muscle and kidney; experiment: Tissue NAD+ levels after intraperitoneal injection of NR or NRH; format: in vivo, mice; details: IP 500 mg/kg, after 1 h
Experimental: as §3

[4] = design: species or system mice; details: mouse, in vivo, po
Excerpt: as §1
Oral administration of NRH led to very similar results to those observed after IP administration. […] In contrast, NR levels were undetectable at 1 h after NR administration. As expected, NR treatment led to large increases in circulating NAM, which where ˜4-fold higher than those observed after NRH treatment.

[5] = Stability in FBS supplemented media; format: in vitro ADME
Excerpt: as §2

NC(=O)c1ccc[n+]([C@@H]2O[C@H](CO)[C@@H](O)[C@H]2O)c1 [NR, 1-b-D-ribofuranosyl-3-pyridinecarboxamide salt, reference compound]
compound levels in isolated mouse plasma [1]: decayed in plasma
generation of NAM in isolated mouse plasma [1]: increase in NAM
NAM levels in circulation [2]: highly increased in circulation
NAD+ levels in NRK1KO derived primary hepatocytes (NRK1): failed to increase NAD+ levels
NAD+ levels in kidney [3]: increased NAD+ levels
NAD+ levels in liver [3]: increased NAD+ levels
NAD+ levels in muscle [3]: increased NAD+ levels
circulating NAM after NR treatment relative to NRH treatment ([4]; C57BI/6NTac, 1 h): ~4 fold
administered compound in plasma [4]: undetectable
degradation to NAM in FBS supplemented media [5]: as occurs with NR
